Test results as given in publication PMC8799717, “Pharmacological targeting PIKfyve and tubulin as an effective treatment strategy for double-hit lymphoma” (Cell Death Discovery, 2022).

Columns and labels:
Assay in all cases: biochemical
Design in all cases: KINOMEscan active-site-directed competition binding panel, 468 kinases, percent of DMSO control at 1 uM
Settings in all cases: KINOMEscan binding, percent of DMSO control; read-out: Ctrl%
[1] = target: WNK2 (Homo sapiens, UniProt Q9Y3S1)
[2] = target: T1, TRKB (Homo sapiens, UniProt Q16620)
T1 construct: gene NTRK2

[3] = target: DMPK (Homo sapiens, UniProt Q09013)
[4] = target: T2, S6K1 (Homo sapiens, UniProt P23443)
T2 construct: gene RPS6KB1

[5] = target: NLK (Homo sapiens, UniProt Q9UBE8)
[6] = target: CLK3 (Homo sapiens, UniProt P49761)
[7] = target: LIMK1 (Homo sapiens, UniProt P53667)
[8] = target: CAMK2D (Homo sapiens, UniProt Q13557)
[9] = target: MARK1 (Homo sapiens, UniProt Q9P0L2)
[10] = target: TLK1 (Homo sapiens, UniProt Q9UKI8)
[11] = target: T3, NDR1 (Homo sapiens, UniProt Q15208)
T3 construct: gene STK38

[12] = target: T4, PKAC-alpha (Homo sapiens, UniProt P17612)
T4 construct: gene PRKACA

[13] = target: CLK2 (Homo sapiens, UniProt P49760)
[14] = target: WEE1 (Homo sapiens, UniProt P30291)
[15] = target: T5, TRKA (Homo sapiens, UniProt P04629)
T5 construct: gene NTRK1

[16] = target: T6, ABL1(T315I)-nonphosphorylated (Homo sapiens, UniProt P00519, T315I)
T6 construct: nonphosphorylated

[17] = target: ACVR2B (Homo sapiens, UniProt Q13705)
[18] = target: TSSK1B (Homo sapiens, UniProt Q9BXA7)
[19] = target: ROCK2 (Homo sapiens, UniProt O75116)
[20] = target: EPHB6 (Homo sapiens, UniProt O15197)
[21] = target: SBK1 (Homo sapiens, UniProt Q52WX2)
[22] = target: IRAK4 (Homo sapiens, UniProt Q9NWZ3)
[23] = target: CDKL2 (Homo sapiens, UniProt Q92772)
[24] = target: T7, MEK3 (Homo sapiens, UniProt P46734)
T7 construct: gene MAP2K3
T7 sequence (P46734 whole entry): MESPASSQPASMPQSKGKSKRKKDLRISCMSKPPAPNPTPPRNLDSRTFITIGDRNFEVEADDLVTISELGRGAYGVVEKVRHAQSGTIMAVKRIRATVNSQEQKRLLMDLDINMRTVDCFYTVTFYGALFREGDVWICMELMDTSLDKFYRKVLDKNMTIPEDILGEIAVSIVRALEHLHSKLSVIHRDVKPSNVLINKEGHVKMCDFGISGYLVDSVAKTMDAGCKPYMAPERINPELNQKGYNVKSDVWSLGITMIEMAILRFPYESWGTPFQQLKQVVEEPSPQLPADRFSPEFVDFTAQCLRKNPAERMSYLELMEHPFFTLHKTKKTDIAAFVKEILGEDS

MARK1, sequence (Q9P0L2 whole entry): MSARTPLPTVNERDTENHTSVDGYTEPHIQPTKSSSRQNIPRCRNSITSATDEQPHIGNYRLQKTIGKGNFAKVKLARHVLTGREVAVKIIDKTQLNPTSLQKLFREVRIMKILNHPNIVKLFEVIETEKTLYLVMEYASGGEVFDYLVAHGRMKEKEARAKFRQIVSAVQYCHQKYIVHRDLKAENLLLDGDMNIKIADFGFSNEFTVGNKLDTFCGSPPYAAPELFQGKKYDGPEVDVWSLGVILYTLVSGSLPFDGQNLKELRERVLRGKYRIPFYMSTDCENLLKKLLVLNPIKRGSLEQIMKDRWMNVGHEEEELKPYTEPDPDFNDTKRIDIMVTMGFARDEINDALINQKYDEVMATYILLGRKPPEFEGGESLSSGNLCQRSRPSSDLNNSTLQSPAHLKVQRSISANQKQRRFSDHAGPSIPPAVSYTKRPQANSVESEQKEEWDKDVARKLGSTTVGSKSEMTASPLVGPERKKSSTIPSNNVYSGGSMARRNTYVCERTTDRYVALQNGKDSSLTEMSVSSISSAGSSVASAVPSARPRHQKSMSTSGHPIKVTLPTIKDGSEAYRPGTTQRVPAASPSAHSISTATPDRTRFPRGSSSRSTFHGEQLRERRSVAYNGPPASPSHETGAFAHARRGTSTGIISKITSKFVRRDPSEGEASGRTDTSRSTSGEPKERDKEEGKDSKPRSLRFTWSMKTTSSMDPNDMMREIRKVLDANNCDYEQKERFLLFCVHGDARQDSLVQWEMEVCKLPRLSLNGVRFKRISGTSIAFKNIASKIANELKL
T1 sequence (Q16620 whole entry): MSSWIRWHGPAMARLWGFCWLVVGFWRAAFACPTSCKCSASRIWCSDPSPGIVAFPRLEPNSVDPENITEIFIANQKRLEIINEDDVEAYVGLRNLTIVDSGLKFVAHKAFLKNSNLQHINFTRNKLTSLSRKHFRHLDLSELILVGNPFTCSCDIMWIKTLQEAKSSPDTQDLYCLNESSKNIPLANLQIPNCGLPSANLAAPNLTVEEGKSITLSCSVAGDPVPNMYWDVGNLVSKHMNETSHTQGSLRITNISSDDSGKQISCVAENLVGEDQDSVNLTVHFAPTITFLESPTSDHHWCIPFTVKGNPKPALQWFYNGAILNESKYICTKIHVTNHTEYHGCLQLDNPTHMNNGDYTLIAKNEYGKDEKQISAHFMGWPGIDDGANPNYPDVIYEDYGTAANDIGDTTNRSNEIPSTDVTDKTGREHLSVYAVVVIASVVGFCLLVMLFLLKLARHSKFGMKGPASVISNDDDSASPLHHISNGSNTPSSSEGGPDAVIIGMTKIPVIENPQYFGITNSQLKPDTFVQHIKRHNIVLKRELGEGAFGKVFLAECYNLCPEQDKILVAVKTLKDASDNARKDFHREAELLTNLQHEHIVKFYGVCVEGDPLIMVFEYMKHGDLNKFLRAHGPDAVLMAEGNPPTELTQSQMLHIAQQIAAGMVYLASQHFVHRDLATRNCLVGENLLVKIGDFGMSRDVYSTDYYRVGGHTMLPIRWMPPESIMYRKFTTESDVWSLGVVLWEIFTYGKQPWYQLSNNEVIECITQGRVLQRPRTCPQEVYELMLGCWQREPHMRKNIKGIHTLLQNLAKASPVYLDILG
TSSK1B, sequence (Q9BXA7 whole entry): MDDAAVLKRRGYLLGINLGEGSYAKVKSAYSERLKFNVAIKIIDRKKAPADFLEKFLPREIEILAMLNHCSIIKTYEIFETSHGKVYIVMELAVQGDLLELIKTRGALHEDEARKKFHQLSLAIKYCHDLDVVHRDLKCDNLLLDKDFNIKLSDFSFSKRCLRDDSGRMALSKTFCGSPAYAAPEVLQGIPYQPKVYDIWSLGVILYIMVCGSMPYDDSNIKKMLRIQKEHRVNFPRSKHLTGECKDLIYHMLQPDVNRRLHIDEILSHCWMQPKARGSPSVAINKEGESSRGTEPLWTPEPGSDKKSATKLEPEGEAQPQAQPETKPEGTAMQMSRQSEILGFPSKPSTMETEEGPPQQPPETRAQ
ACVR2B, sequence (Q13705 whole entry): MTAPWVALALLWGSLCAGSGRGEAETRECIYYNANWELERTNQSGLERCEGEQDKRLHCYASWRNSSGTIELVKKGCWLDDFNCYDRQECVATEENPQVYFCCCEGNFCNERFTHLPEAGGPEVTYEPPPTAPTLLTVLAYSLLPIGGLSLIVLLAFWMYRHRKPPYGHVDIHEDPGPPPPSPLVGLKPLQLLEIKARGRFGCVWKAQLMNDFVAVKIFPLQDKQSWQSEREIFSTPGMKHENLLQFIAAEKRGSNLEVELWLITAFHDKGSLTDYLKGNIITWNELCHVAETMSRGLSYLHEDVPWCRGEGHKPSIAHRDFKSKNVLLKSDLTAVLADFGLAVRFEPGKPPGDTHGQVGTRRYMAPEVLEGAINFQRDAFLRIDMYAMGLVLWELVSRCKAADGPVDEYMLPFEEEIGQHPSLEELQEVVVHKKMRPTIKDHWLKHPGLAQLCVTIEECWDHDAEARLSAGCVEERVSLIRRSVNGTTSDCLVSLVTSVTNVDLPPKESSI
DMPK, sequence (Q09013 whole entry): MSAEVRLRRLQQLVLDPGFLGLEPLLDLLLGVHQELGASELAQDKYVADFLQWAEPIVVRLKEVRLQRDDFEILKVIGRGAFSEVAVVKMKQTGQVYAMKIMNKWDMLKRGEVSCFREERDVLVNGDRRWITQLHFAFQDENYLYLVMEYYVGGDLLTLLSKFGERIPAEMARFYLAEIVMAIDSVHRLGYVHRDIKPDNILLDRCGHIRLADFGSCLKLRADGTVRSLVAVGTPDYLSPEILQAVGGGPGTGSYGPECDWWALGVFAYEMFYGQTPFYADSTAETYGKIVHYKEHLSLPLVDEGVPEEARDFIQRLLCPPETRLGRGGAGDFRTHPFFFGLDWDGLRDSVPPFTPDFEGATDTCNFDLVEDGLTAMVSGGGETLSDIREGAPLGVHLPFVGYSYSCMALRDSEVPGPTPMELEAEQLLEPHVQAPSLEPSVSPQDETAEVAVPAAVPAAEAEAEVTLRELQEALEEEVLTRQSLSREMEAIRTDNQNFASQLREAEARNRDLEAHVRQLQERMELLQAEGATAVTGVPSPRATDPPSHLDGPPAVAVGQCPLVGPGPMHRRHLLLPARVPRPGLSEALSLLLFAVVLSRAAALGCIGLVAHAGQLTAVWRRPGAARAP
CLK2, sequence (P49760 whole entry): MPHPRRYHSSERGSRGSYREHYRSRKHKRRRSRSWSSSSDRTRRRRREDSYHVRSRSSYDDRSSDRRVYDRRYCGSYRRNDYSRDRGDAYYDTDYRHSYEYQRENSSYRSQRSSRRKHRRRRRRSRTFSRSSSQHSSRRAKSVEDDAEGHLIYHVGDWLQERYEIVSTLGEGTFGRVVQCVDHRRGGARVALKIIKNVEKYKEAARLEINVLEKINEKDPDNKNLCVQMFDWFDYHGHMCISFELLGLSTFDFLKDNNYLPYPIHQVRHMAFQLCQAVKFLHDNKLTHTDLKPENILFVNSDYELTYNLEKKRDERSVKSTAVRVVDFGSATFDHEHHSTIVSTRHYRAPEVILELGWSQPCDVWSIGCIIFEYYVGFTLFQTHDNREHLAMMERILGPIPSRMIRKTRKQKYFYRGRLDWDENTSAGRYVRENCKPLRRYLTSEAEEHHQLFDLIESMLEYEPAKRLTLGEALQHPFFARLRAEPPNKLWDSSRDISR
NLK, sequence (Q9UBE8 whole entry): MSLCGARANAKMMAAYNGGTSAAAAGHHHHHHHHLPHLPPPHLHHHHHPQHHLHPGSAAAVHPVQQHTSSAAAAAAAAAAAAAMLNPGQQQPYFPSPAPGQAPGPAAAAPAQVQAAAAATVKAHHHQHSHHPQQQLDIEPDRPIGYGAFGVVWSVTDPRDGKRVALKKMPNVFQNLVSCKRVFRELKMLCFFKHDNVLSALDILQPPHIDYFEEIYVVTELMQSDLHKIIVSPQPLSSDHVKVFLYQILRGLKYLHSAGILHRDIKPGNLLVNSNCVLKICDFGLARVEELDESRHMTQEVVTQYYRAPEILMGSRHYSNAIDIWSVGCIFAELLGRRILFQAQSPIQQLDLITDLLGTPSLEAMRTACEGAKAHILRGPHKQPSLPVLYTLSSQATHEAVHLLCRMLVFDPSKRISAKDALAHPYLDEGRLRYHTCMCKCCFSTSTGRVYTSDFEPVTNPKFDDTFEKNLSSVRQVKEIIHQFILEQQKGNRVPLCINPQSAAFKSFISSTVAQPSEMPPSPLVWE
CLK3, sequence (P49761 whole entry): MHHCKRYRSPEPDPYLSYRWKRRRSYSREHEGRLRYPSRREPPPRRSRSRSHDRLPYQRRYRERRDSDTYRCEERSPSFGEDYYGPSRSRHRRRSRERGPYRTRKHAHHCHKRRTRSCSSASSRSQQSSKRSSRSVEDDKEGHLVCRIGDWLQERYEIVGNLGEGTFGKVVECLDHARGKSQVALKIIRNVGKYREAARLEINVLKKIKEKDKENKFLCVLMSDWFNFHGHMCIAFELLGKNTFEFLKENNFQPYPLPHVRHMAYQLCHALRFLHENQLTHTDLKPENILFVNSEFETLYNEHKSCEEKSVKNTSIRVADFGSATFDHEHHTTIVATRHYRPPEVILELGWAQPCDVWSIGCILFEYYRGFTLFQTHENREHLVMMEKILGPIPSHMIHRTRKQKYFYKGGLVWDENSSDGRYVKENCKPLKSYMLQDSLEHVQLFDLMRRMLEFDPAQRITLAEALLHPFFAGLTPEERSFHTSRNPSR

Compound: Cc1ccc(NC(=O)c2cccc(C(F)(F)F)c2)cc1Nc1cc(-c2cccnc2)nc2[nH]ccc12 [HZX-02-059]
- remaining binding at 1 µM [1]: 100%
- remaining binding at 1 µM [2]: 100%
- remaining binding at 1 µM [3]: 81%
- remaining binding at 1 µM [4]: 95%
- remaining binding at 1 µM [5]: 100%
- remaining binding at 1 µM [6]: 82%
- remaining binding at 1 µM [7]: 72%
- remaining binding at 1 µM [8]: 100%
- remaining binding at 1 µM [9]: 94%
- remaining binding at 1 µM [10]: 95%
- remaining binding at 1 µM [11]: 100%
- remaining binding at 1 µM [12]: 94%
- remaining binding at 1 µM [13]: 92%
- remaining binding at 1 µM [14]: 95%
- remaining binding at 1 µM [15]: 100%
- remaining binding at 1 µM [16]: 77%
- remaining binding at 1 µM [17]: 71%
- remaining binding at 1 µM [18]: 100%
- remaining binding at 1 µM [19]: 100%
- remaining binding at 1 µM [20]: 42%
- remaining binding at 1 µM [21]: 88%
- remaining binding at 1 µM [22]: 100%
- remaining binding at 1 µM [23]: 99%
- remaining binding at 1 µM [24]: 83%
